The record followed here is patent publication US11254663B2 (BRISTOL-MYERS SQUIBB COMPANY, priority 2019, dated 2022).

SMILES strings stand for the structures.

For one experiment, the target named is FXR (Homo sapiens (Human), UniProt Q96RI1). Kind of experiment: transient human FXR/Gal4-luciferase reporter assay. The experiment is classed as cell-based.
Chain of FXR (Q96RI1 262-486): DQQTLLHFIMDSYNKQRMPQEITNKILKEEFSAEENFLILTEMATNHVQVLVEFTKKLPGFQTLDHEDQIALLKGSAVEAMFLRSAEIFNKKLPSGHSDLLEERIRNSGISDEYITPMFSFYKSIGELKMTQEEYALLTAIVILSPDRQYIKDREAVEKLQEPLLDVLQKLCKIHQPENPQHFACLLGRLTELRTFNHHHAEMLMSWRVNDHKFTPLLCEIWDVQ
Conditions: not given
The gist of the method:
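HEK293 cells stably carrying a 5×Gal4 response element–firefly luciferase reporter were transiently transfected overnight with a Gal4 DBD–human FXR LBD fusion plasmid. Compound was added in DMSO and cells were incubated overnight at 37 °C, 5% CO2. Activity was read as Steady-Glo luminescence.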
(In general: Reporter assays use an easily measured gene product as a stand-in for the process of interest.)
As a reminder, the EC50 is the concentration giving half of the maximal effect. Read a high EC50 as weaker potency. `CC(C)(C)c1nc(C23CCC(CN(C(=O)C45CC(F)(C4)C5)c4cc(-c5cnc(C6CC6)nc5)ccn4)(CC2)CC3)no1` [Example 539, N-((4-(5-(tert-butyl)-1,2,4-oxadiazol-3-yl)bicyclo[2.2.2]octan-1-yl)methyl)-N-(4-(2-cyclopropylpyrimidin-5-yl)pyridin-2-yl)-3-fluorobicyclo[1.1.1]pentane-1-carboxamide] yielded a concentration giving a half-maximal response (EC50) of 119 nM.

As to `Cc1nc2ccc(-c3cccc(N(CC45CCC(c6nc(C7CC7)no6)(CC4)OC5)C(=O)C4CC(F)(F)C4)c3)cc2s1` [Example 565, N-((1-(3-cyclopropyl-1,2,4-oxadiazol-5-yl)-2-oxabicyclo[2.2.2]octan-4-yl)methyl)-3,3-difluoro-N-(3-(2-methylbenzo[d]thiazol-6-yl)phenyl)cyclobutane-1-carboxamide], the response was half-maximal at 947 nM (EC50).

Consider `CC1(O)CC(C(=O)N(CC23CCC(c4noc(C(C)(C)C)n4)(CC2)CC3)c2cccc(-c3ccc(OC(F)F)cc3)c2)C1` [Example 517, (1S,3S)—N-((4-(5-(tert-butyl)-1,2,4-oxadiazol-3-yl)bicyclo[2.2.2]octan-1-yl)methyl)-N-(4′-(difluoromethoxy)-[1,1′-biphenyl]-3-yl)-3-hydroxy-3-methylcyclobutane-1-carboxamide], for which a half-maximal response (EC50) required 255 nM. This EC50 lies about 3.7-fold lower than the previous one.

Staying with this experiment, now noted: Gal4-hFXR fusion construct, HEK293 reporter cells; response relative to 8 μM GW-4064.
`Cc1nc2ccc(-c3cccc(N(CC45CCC(c6noc(C7(C)CC7)n6)(CC4)CC5)C(=O)C45CC(F)(C4)C5)c3)cc2s1` [Example 402, 3-fluoro-N-(3-(2-methylbenzo[d]thiazol-6-yl)phenyl)-N-((4-(5-(1-methylcyclopropyl)-1,2,4-oxadiazol-3-yl)bicyclo[2.2.2]octan-1-yl)methyl)bicyclo[1.1.1]pentane-1-carboxamide]: a half-maximal response (EC50) required 35 nM. That is a double-digit nanomolar value.

`O=C(C1CC(F)(F)C1)N(CC12CCC(c3nc(C4CC4)no3)(CC1)CC2)c1cccc(-c2ccnc(OC3CC3)n2)c1` [Example 338, N-(3-(2-cyclopropoxypyrimidin-4-yl)phenyl)-N-((4-(3-cyclopropyl-1,2,4-oxadiazol-5-yl)bicyclo[2.2.2]octan-1-yl)methyl)-3,3-difluorocyclobutane-1-carboxamide] yielded a concentration for a half-maximal effect (EC50) of 1360 nM.

On to `CC(C)(C#N)Oc1ccc(-c2cccc(N(CC34CCC(c5noc(C(C)(C)F)n5)(CC3)CC4)C(=O)N3CCC(C(C)(C)O)CC3)c2)cc1` [Example 651, N-(4′-((2-cyanopropan-2-yl)oxy)-[1,1′-biphenyl]-3-yl)-N-((4-(5-(2-fluoropropan-2-yl)-1,2,4-oxadiazol-3-yl)bicyclo[2.2.2]octan-1-yl)methyl)-4-(2-hydroxypropan-2-yl)piperidine-1-carboxamide], for which the EC50 worked out at 273 nM.

As to `COc1cnc(-c2cccc(N(CC34CCC(c5nc(C6CC6)no5)(CC3)CC4)C(=O)C34CC(F)(C3)C4)c2)nc1` [Example 334, N-((4-(3-cyclopropyl-1,2,4-oxadiazol-5-yl)bicyclo[2.2.2]octan-1-yl)methyl)-3-fluoro-N-(3-(5-methoxypyrimidin-2-yl)phenyl)bicyclo[1.1.1]pentane-1-carboxamide], the 50% effective concentration (EC50) is 77 nM.

`CC(C)(C)NC(=O)N(CC12CCC(c3noc(C(C)(C)F)n3)(CC1)CC2)c1cc(-c2ccc(OC(F)F)cc2)cnn1` [Example 660]: the EC50 is 2190 nM.

Molecule `CCOc1ncc(-c2cccc(N(CC34CCC(c5cc(C6CC6)n(C)n5)(CC3)CC4)C(=O)C34CC(F)(C3)C4)c2)cn1` [Example 407, N-((4-(5-cyclopropyl-1-methyl-1H-pyrazol-3-yl)bicyclo[2.2.2]octan-1-yl)methyl)-N-(3-(2-ethoxypyrimidin-5-yl)phenyl)-3-fluorobicyclo[1.1.1]pentane-1-carboxamide] registered an EC50 of 209 nM.

The molecule `Cc1nc2ccc(-c3ccnc(N(CC45CCC(c6nc(C(C)(C)C)no6)(CC4)CC5)C(=O)C45CC(F)(C4)C5)c3)cc2s1` [Example 551, N-((4-(3-(tert-butyl)-1,2,4-oxadiazol-5-yl)bicyclo[2.2.2]octan-1-yl)methyl)-3-fluoro-N-(4-(2-methylbenzo[d]thiazol-6-yl)pyridin-2-yl)bicyclo[1.1.1]pentane-1-carboxamide] yielded a concentration giving a half-maximal response (EC50) of 55 nM.

`Cc1cc(-c2cccc(N(CC34CCC(c5nc(C6CC6)no5)(CC3)CC4)C(=O)C34CC(F)(C3)C4)c2)cn2ncnc12` [Example 266, N-((4-(3-cyclopropyl-1,2,4-oxadiazol-5-yl)bicyclo[2.2.2]octan-1-yl)methyl)-3-fluoro-N-(3-(8-methyl-[1,2,4]triazolo[1,5-a]pyridin-6-yl)phenyl)bicyclo[1.1.1]pentane-1-carboxamide] showed an EC50 of 691 nM. Against the preceding molecule, the EC50 is about 13-fold higher.

In the case of `CC(C)Oc1ccc(-c2cccc(N(CC34CCC(c5noc(C(C)(F)F)n5)(CC3)CC4)C(=O)NC3CCOCC3)c2)cc1` [Example 652, 1-((4-(5-(1,1-difluoroethyl)-1,2,4-oxadiazol-3-yl)bicyclo[2.2.2]octan-1-yl)methyl)-1-(4′-isopropoxy-[1,1′-biphenyl]-3-yl)-3-(tetrahydro-2H-pyran-4-yl)urea], a half-maximal effect (EC50) was put at 379 nM.

As to `O=C(N(CC12CCC(c3nc(C4CC4)no3)(CC1)CC2)c1cccc(-c2ccc(NS(=O)(=O)C(F)(F)F)cc2)c1)C12CC(F)(C1)C2` [Example 267, N-((4-(3-cyclopropyl-1,2,4-oxadiazol-5-yl)bicyclo[2.2.2]octan-1-yl)methyl)-3-fluoro-N-(4′-((trifluoromethyl)sulfonamido)-[1,1′-biphenyl]-3-yl)bicyclo[1.1.1]pentane-1-carboxamide], a half-maximal response (EC50) required 46 nM. Against the preceding molecule, the EC50 is about 8.2-fold lower.

In turn, `Cc1nc2ccc(-c3cccc(N(CC45CCC(c6noc(C(C)C)n6)(CC4)CC5)C(=O)C45CC(F)(C4)C5)c3)cc2s1` [Example 433, 3-fluoro-N-((4-(5-isopropyl-1,2,4-oxadiazol-3-yl)bicyclo[2.2.2]octan-1-yl)methyl)-N-(3-(2-methylbenzo[d]thiazol-6-yl)phenyl)bicyclo[1.1.1]pentane-1-carboxamide] yielded a concentration for a half-maximal effect (EC50) of 37 nM.

On to `CC(C)(C)c1nc(C23CCC(CN(C(=O)C45CC(F)(C4)C5)c4cccc(-c5ccc6[nH]c(=O)oc6c5)c4)(CC2)CC3)no1` [Example 447, N-((4-(5-(tert-butyl)-1,2,4-oxadiazol-3-yl)bicyclo[2.2.2]octan-1-yl)methyl)-3-fluoro-N-(3-(2-oxo-2,3-dihydrobenzo[d]oxazol-6-yl)phenyl)bicyclo[1.1.1]pentane-1-carboxamide], for which the EC50 is 87 nM.

In turn, `N#CC1(c2ccc(-c3cccc(N(CC45CCC(c6nc(C7CC7)no6)(CC4)CC5)C(=O)C45CC(F)(C4)C5)c3)cc2)CC1` [Example 279, N-(4′-(1-cyanocyclopropyl)-[1,1′-biphenyl]-3-yl)-N-((4-(3-cyclopropyl-1,2,4-oxadiazol-5-yl)bicyclo[2.2.2]octan-1-yl)methyl)-3-fluorobicyclo[1.1.1]pentane-1-carboxamide] showed a 50% effective concentration (EC50) of 125 nM. This EC50 and that of the molecule before are within 1.5-fold of each other.

`Cc1nc2ncc(-c3cccc(N(CC45CCC(c6nc(C7CC7)no6)(CC4)CC5)C(=O)C45CC(F)(C4)C5)c3)cc2s1` [Example 278, N-((4-(3-cyclopropyl-1,2,4-oxadiazol-5-yl)bicyclo[2.2.2]octan-1-yl)methyl)-3-fluoro-N-(3-(2-methylthiazolo[4,5-b]pyridin-6-yl)phenyl)bicyclo[1.1.1]pentane-1-carboxamide] gave an EC50 of 83 nM. Against the preceding molecule, the EC50 is about 1.5-fold lower.

For the molecule `Cc1ccnc(-c2cccc(N(CC34CCC(c5nc(C6CC6)no5)(CC3)CC4)C(=O)C34CC(F)(C3)C4)c2)n1` [Example 300, N-((4-(3-cyclopropyl-1,2,4-oxadiazol-5-yl)bicyclo[2.2.2]octan-1-yl)methyl)-3-fluoro-N-(3-(4-methylpyrimidin-2-yl)phenyl)bicyclo[1.1.1]pentane-1-carboxamide], the EC50 came to 413 nM. This EC50 lies about 5-fold higher than the previous one.

`COc1ncc(C23CCC(CN(C(=O)C45CC(F)(C4)C5)c4cccc(-c5ccc6nc(C)sc6c5)c4)(CC2)CO3)cn1` [Example 558, 3-Fluoro-N-((1-(2-methoxypyrimidin-5-yl)-2-oxabicyclo[2.2.2]octan-4-yl)methyl)-N-(3-(2-methylbenzo[d]thiazol-6-yl)phenyl)bicyclo[1.1.1]pentane-1-carboxamide] gave an EC50 of 561 nM.

The molecule `COc1ccc(C23CCC(CN(C(=O)C4CC(F)(F)C4)c4cccc(-c5ccc6nc(C)sc6c5)c4)(CC2)CO3)cc1` [Example 557, 3,3-Difluoro-N-((1-(4-methoxyphenyl)-2-oxabicyclo[2.2.2]octan-4-yl)methyl)-N-(3-(2-methylbenzo[d]thiazol-6-yl)phenyl)cyclobutane-1-carboxamide] yielded a concentration for a half-maximal effect (EC50) of 1580 nM.

On to `COc1cc(-c2cccc(N(CC34CCC(c5nnc(C)s5)(CC3)CC4)C(=O)C34CC(F)(C3)C4)c2)ccn1` [Example 232, 3-Fluoro-N-(3-(2-methoxypyridin-4-yl)phenyl)-N-((4-(5-methyl-1,3,4-thiadiazol-2-yl)bicyclo[2.2.2]octan-1-yl)methyl)bicyclo[1.1.1]pentane-1-carboxamide], for which a half-maximal response (EC50) required 465 nM.

As for `COc1cc(-c2cccc(N(CC34CCC(c5nnc(C)o5)(CC3)CC4)C(=O)C3CCC3)c2)ccn1` [Example 231, N-(3-(2-methoxypyridin-4-yl)phenyl)-N-((4-(5-methyl-1,3,4-oxadiazol-2-yl)bicyclo[2.2.2]octan-1-yl)methyl)cyclobutanecarboxamide], the EC50 came out at 592 nM.

`Cc1nc2ccc(-c3ccnc(N(CC45CCC(c6nc(C7CC7)no6)(CC4)CC5)C(=O)C45CC(F)(C4)C5)c3)cc2s1` [Example 549, N-((4-(3-cyclopropyl-1,2,4-oxadiazol-5-yl)bicyclo[2.2.2]octan-1-yl)methyl)-3-fluoro-N-(4-(2-methylbenzo[d]thiazol-6-yl)pyridin-2-yl)bicyclo[1.1.1]pentane-1-carboxamide] showed a half-maximal effective concentration (EC50) of 36 nM.

As to `COc1nccc(-c2cccc(N(CC34CCC(c5nc(C6CC6)no5)(CC3)CC4)C(=O)C3CC(F)(F)C3)c2)n1` [Example 243, N-((4-(3-cyclopropyl-1,2,4-oxadiazol-5-yl)bicyclo[2.2.2]octan-1-yl)methyl)-3,3-difluoro-N-(3-(2-methoxypyrimidin-4-yl)phenyl)cyclobutane-1-carboxamide], the 50% effective concentration (EC50) was found to be 428 nM.
